Measured values: patent EP4778932A1 (priority 2023, dated 2025)

Tests used:
Assay in all cases: cells
Format in all cases: cell-based
OV90 = conditions: Homo sapiens, OV-90, 120 h; OV90 cells, five days co-incubation; read-out: IC50 (nM) OV90
Experimental: (§1) MDA-MB-231, OV90, and NCI-N87 cells at defined cell densities (1,500 cells per well, 80 µL volume) were seeded into 96-well plates. The cells were cultured overnight in a constant-temperature incubator (37°C, 5% CO2). Ecteinascidin derivative solutions at a maximum concentration of 2 mM were first prepared in DMSO, and serial 1:4 gradient dilutions were performed. 1 µL of each DMSO-prepared dilution was added to 99 µL of PBS containing 10% FBS per well and mixed thoroughly. The diluted solutions (2 µL of diluted solution and 18 µL of PBS containing 10% FBS per well) were then co-incubated with the cells (37°C, 5% CO2) for five days, after which CellTiter-Glo reagent (40 µL per well) was added, and […] values were measured using an i3x microplate reader.

NCI-N87 = conditions: Homo sapiens, 120 h; NCI-N87 cells, five days co-incubation; read-out: IC50 (nM) NCI-N87
Experimental: as §1

MDA-MB-231 = conditions: Homo sapiens, 120 h; MDA-MB-231 cells, five days co-incubation; read-out: IC50 (nM) MDA-MB-231
Experimental: as §1

SMILES	IC50 (OV90) [nM]	IC50 (NCI-N87) [nM]	IC50 (MDA-MB-231) [nM]
COc1cc2c(cc1N)[C@@H](CC1CC1)CN[C@]21CS[C@@H]2c3c(OC(C)=O)c(C)c4c(c3[C@H](COC1=O)N1[C@@H]2[C@H]2c3c(cc(C)c(OC)c3O)C[C@@H]([C@@H]1C#N)N2C)OCO4 [P262]	1 to 10	1 to 10	1 to 10
COc1cc2c(cc1O)C(N)CN[C@]21CS[C@@H]2c3c(OC(C)=O)c(C)c4c(c3[C@H](COC1=O)N1[C@@H]2[C@H]2c3c(cc(C)c(OC)c3O)C[C@@H]([C@@H]1C#N)N2C)OCO4 (stereo partly drawn) [T2]	10 to 200	10 to 200	1 to 10
COc1c(C)cc2c(c1O)[C@@H]1[C@@H]3[C@@H]4SC[C@]5(NCCc6cc(NC(=O)[C@H]7C[C@@H](O)C7)c(F)cc65)C(=O)OC[C@@H](c5c6c(c(C)c(OC(C)=O)c54)OCO6)N3[C@@H](C#N)[C@H](C2)N1C [T5]	< 1	1 to 10	< 1
COc1c(C)cc2c(c1O)[C@@H]1[C@@H]3[C@@H]4SC[C@]5(NCCc6c5ccc(N)c6O)C(=O)OC[C@@H](c5c6c(c(C)c(OC(C)=O)c54)OCO6)N3[C@@H](C#N)[C@H](C2)N1C [T6]	1 to 10	1 to 10	1 to 10
COc1c(C)cc2c(c1O)[C@@H]1[C@@H]3[C@@H]4SC[C@]5(NCCc6c5ccc(NC(=O)CO)c6O)C(=O)OC[C@@H](c5c6c(c(C)c(OC(C)=O)c54)OCO6)N3[C@@H](C#N)[C@H](C2)N1C [T7]	1 to 10	1 to 10	1 to 10
COc1c(C)cc2c(c1O)[C@@H]1[C@@H]3[C@@H]4SC[C@]5(NCCc6cc(N)c(O)cc65)C(=O)OC[C@@H](c5c6c(c(C)c(OC(C)=O)c54)OCO6)N3[C@@H](C#N)[C@H](C2)N1C [T8]	1 to 10	1 to 10	1 to 10
COc1c(C)cc2c(c1O)[C@@H]1[C@@H]3[C@@H]4SC[C@]5(NCCc6cc(NC(=O)CO)c(O)cc65)C(=O)OC[C@@H](c5c6c(c(C)c(OC(C)=O)c54)OCO6)N3[C@@H](C#N)[C@H](C2)N1C [T9]	1 to 10	1 to 10	1 to 10
COc1cc2c(cc1NC(=O)CO)C1(CC1)CN[C@]21CS[C@@H]2c3c(OC(C)=O)c(C)c4c(c3[C@H](COC1=O)N1[C@@H]2[C@H]2c3c(cc(C)c(OC)c3O)C[C@@H]([C@@H]1C#N)N2C)OCO4 [T11]	< 1	< 1	< 1
COc1c(C)cc2c(c1O)[C@@H]1[C@@H]3[C@@H]4SC[C@]5(NCCc6cc(N)cc(O)c65)C(=O)OC[C@@H](c5c6c(c(C)c(OC(C)=O)c54)OCO6)N3[C@@H](C#N)[C@H](C2)N1C [T12]	1 to 10	1 to 10	1 to 10
COc1c(C)cc2c(c1O)[C@@H]1[C@@H]3[C@@H]4SC[C@]5(NCCc6cc(NC(=O)CO)cc(O)c65)C(=O)OC[C@@H](c5c6c(c(C)c(OC(C)=O)c54)OCO6)N3[C@@H](C#N)[C@H](C2)N1C [T13]	10 to 200	10 to 200	10 to 200
COc1c(C)cc2c(c1O)[C@@H]1[C@@H]3[C@@H]4SC[C@]5(NCCc6cc(N)c(OC)c(OC)c65)C(=O)OC[C@@H](c5c6c(c(C)c(OC(C)=O)c54)OCO6)N3[C@@H](C#N)[C@H](C2)N1C [T14]	10 to 200	10 to 200	1 to 10
COc1c(C)cc2c(c1O)[C@@H]1[C@@H]3[C@@H]4SC[C@]5(NCCc6cc(NC(=O)CO)c(OC)c(OC)c65)C(=O)OC[C@@H](c5c6c(c(C)c(OC(C)=O)c54)OCO6)N3[C@@H](C#N)[C@H](C2)N1C [T15]	10 to 200	10 to 200	10 to 200
CNc1cc2c(cc1OC)[C@@]1(CS[C@@H]3c4c(OC(C)=O)c(C)c5c(c4[C@H](COC1=O)N1[C@@H]3[C@H]3c4c(cc(C)c(OC)c4O)C[C@@H]([C@@H]1C#N)N3C)OCO5)NCC2 [T16]	1 to 10	< 1	1 to 10
COc1c(C)cc2c(c1O)[C@@H]1[C@@H]3[C@@H]4SC[C@]5(NCC(C)(C)c6c5ccc(N)c6OC)C(=O)OC[C@@H](c5c6c(c(C)c(OC(C)=O)c54)OCO6)N3[C@@H](C#N)[C@H](C2)N1C [T18]	1 to 10	< 1	< 1
